Laboratory results as given in US5300499A, “5-substituted 3-thiophene sulfonamides as antiglaucoma agents” (Allergan, Inc., priority 1992, dated 1994).
“And” between values parts separate entries of the source, which are not always exact repeats. Equal entries are not always repeated.

What follows are compounds tested against T1, pure CA11 enzyme from human erythrocyte (Homo sapiens, UniProt P00918) (assay: Carbonic anhydrase activity assay, micromethod of Maren). Conditions: concentration that lowers the enzyme activity to half; 0°-4° C.; phenol red endpoint, pH 9.9 to 6.8.
T1 construct: pure CA11 enzyme from human erythrocyte; from tissue; host or cells: human erythrocyte
Assay type: biochemical
Description: Carbonic anhydrase activity was assayed according to the micromethod of Maren (J. Pharmacol. Exptl. Therap., 130, 26-29, 1960). All solutions and reagents were maintained at 0°-4° C. The final assay mixture contained 16 mM phenol red, added enzyme and 62.5 mM sodium carbonate/bicarbonate. Its volume was kept constant at 0.8 mL. The time required for the added enzyme to lower the pH of CO2 -saturated carbonate/bicarbonate buffer from pH 9.9 to 6.8 was measured using the color change of phenol red as endpoint. T1 is the time recorded for the reaction containing no enzyme. T2 is the time recorded for the reaction containing pure CA11 enzyme from human erythrocyte, or an unknown amount in a sample. Enzyme activities (unit) were calculated using the formula:
Unit/ug=(T1 -T2)/(T2 *ug protein used in assay)
IC50 of a carbonic anhydrase inhibitor is the concentration that lowers the enzyme activity to half.
In the case of `NS(=O)(=O)c1csc(C(=O)c2cccc(OC(=O)c3ccccc3)c2)c1`, the IC50 is reported as 5.3 nM.
Compound `CCCCCCC(=O)c1cc(S(N)(=O)=O)cs1` [5-(1-heptanoyl)-3-thiophene sulfonamide] has an IC50 of 14 nM.
`CCCCCCC(O)c1cc(S(N)(=O)=O)cs1` (stereo not shown) [5-(1-hydroxy-n-heptyl)-3-thiophene sulfonamide] gave an IC50 of 31 nM.
Work on `CCCCC(O)c1cc(S(N)(=O)=O)cs1` (stereo not shown) [5-(1-hydroxy-n-pentyl)-3-thiophene sulfonamide] yielded an IC50 of 32 nM.
`CCCCC(=NO)c1cc(S(N)(=O)=O)cs1` [5-(1-pentanoyl)-3-thiophene sulfonamide, oxime] showed an IC50 of 22 nM.
`CCCCC(=O)c1cc(S(N)(=O)=O)cs1` [5-(1-pentanoyl)-3-thiophene sulfonamide] showed an IC50 of 27 nM.
With `NS(=O)(=O)c1csc(C(=O)c2ccccc2F)c1` [5-(2-fluorobenzoyl)-3-thiophene sulfonamide] the IC50 was 18 nM.
With `NS(=O)(=O)c1csc(C(=O)c2cccc(C(=O)O)c2)c1` [5-(3-carboxylbenzoyl)-3-thiophene sulfonamide] the IC50 was 11 nM and 14 nM.
`NS(=O)(=O)c1csc(C(=O)c2cccc(F)c2)c1` [5-(3-fluorobenzoyl)-3-thiophene sulfonamide] gave an IC50 of 12 nM.
For `NS(=O)(=O)c1csc(C(=O)c2cccc(C=O)c2)c1` [5-(3-formylbenzoyl)-3-thiophene sulfonamide], the IC50 was 7.3 nM.
`NS(=O)(=O)c1csc(C(O)c2cccc(O)c2)c1` (stereo not shown) [5-(3-hydroxybenzhydrol)-3-thiophene sulfonamide] gave an IC50 of 37 nM.
`NS(=O)(=O)c1csc(C(=O)c2cccc(O)c2)c1` [5-(3-hydroxybenzoyl)-3-thiophene sulfonamide] was tested, and the IC50 was 6.7 nM.
Compound `NS(=O)(=O)c1csc(C(=O)c2cccc(C(F)(F)F)c2)c1` [5-(3-trifluoromethylbenzoyl)-3-thiophene sulfonamide] has an IC50 of 8.3 nM.
Compound `NS(=O)(=O)c1csc(C(=O)c2cc(F)cc(F)c2)c1` [5-(3.5-difluorobenzoyl)-3-thiophene sulfonamide] has an IC50 of 15 nM.
In the case of `CC(=O)Oc1ccc(C(=O)c2cc(S(N)(=O)=O)cs2)cc1` [5-(4-acetoxybenzoyl)-3-thiophene sulfonamide], the IC50 is reported as 12 nM and 3.6 nM.
`CC(=O)OCc1ccc(C(=O)c2cc(S(N)(=O)=O)cs2)cc1` [5-(4-acetoxymethylbenzoyl)-3-thiophene sulfonamide] was tested, and the IC50 was 6 nM.
With `CCCCc1ccc(C(=O)c2cc(S(N)(=O)=O)cs2)cc1` [5-(4-butylbenzoyl)-3-thiophene sulfonamide] the IC50 was 8.7 nM.
With `NS(=O)(=O)c1csc(C(=O)c2ccc(C(=O)O)cc2)c1` [5-(4-carboxybenzoyl)-3-thiophene sulfonamide] the IC50 was 3.4 nM and 5 nM.
`CCOC(=O)c1ccc(C(=O)c2cc(S(N)(=O)=O)cs2)cc1` [5-(4-ethoxycarbonylbenzoyl)-3-thiophene sulfonamide] showed an IC50 of 6 nM.
Compound `NS(=O)(=O)c1csc(C(O)c2ccc(C=O)cc2)c1` (stereo not shown) [5-(4-formylbenzhydrol)-3-thiophene sulfonamide] has an IC50 of 18 nM.
Work on `NS(=O)(=O)c1csc(C(=O)c2ccc(C=O)cc2)c1` [5-(4-formylbenzoyl)-3-thiophene sulfonamide] yielded an IC50 of 13 nM.
Compound `CN(C)Cc1cc(C(=O)c2cc(S(N)(=O)=O)cs2)cc(CN(C)C)c1O` [5-(4-hydroxy-3,5-(bis-N,N-dimethylaminomethyl)benzoyl)-3-thiophene sulfonamide] has an IC50 of 155 nM.
`CN(C)Cc1cc(C(=O)c2cc(S(N)(=O)=O)cs2)ccc1O` [5-(4-hydroxy-3-(N,N-dimethylaminomethyl)benzoyl)-3-thiophene sulfonamide] gave an IC50 of 30 nM.
Work on `NS(=O)(=O)c1csc(C(O)c2ccc(O)cc2)c1` (stereo not shown) [5-(4-hydroxybenzhydrol)3-thiophene sulfonamide] yielded an IC50 of 26 nM.
Compound `NS(=O)(=O)c1csc(C(=O)c2ccc(O)cc2)c1` [5-(4-hydroxybenzoyl)-3-thiophene sulfonamide] has an IC50 of 17 nM.
For `NS(=O)(=O)c1csc(C(O)c2ccc(CO)cc2)c1` (stereo not shown) [5-(4-hydroxymethylbenzhydrol)-3-thiophene sulfonamide], the IC50 was 41 nM.
`NS(=O)(=O)c1csc(C(=O)c2ccc(CO)cc2)c1` [5-(4-hydroxymethylbenzoyl)-3-thiophene sulfonamide] gave an IC50 of 17 nM.
With `COc1ccc(C(O)c2cc(S(N)(=O)=O)cs2)cc1` (stereo not shown) [5-(4-methoxybenzhydrol)-3-thiophene sulfonamide] the IC50 was 16 nM.
For `COc1ccc(C(=NO)c2cc(S(N)(=O)=O)cs2)cc1` [5-(4-methoxybenzoyl)-3-thiophene sulfonamide, oxime], the IC50 was 31 nM.
With `COc1ccc(C(=O)c2cc(S(N)(=O)=O)cs2)cc1` [5-(4-methoxybenzoyl)-3-thiophene sulfonamide] the IC50 was 26 nM.
`CCC(=O)Oc1ccc(C(=O)c2cc(S(N)(=O)=O)cs2)cc1` [5-(4-propionoxybenzoyl)-3-thiophene sulfonamide] was tested, and the IC50 was 9 nM.
`CC(C)(C)OC(=O)c1ccc(C(=O)c2cc(S(N)(=O)=O)cs2)cc1` [5-(4-t-butoxycarbonylbenzoyl)-3-thiophene sulfonamide] showed an IC50 of 3 nM.
`NS(=O)(=O)c1csc(C(O)c2ccccn2)c1` (stereo not shown) [5-[(hydroxy)(pyridyl)methyl]-3-thiophene sulfonamide] was tested, and the IC50 was 240 nM.
With `COC(c1cccc(C(F)(F)F)c1)c1cc(S(N)(=O)=O)cs1` (stereo not shown) [5-[(methoxy)(3-trifluoromethylphenyl)methyl]-3-thiophene sulfonamide] the IC50 was 18 nM.
In the case of `COC(c1ccc(CO)cc1)c1cc(S(N)(=O)=O)cs1` (stereo not shown) [5-[(methoxy)(4-hydroxymethylphenyl)]methyl-3-thiophene sulfonamide], the IC50 is reported as 13 nM.
`CC(=O)OC(c1ccccc1)c1cc(S(N)(=O)=O)cs1` (stereo not shown) [5-[(phenyl)(acetoxy)methyl]-3-thiophene sulfonamide] was tested, and the IC50 was 90 nM.
`NS(=O)(=O)c1csc(C(O)c2ccccc2)c1` (stereo not shown) [5-benzhydrol-3-thiophene sulfonamide, 5-(benzhydrol)-3-thiophene sulfonamide] showed an IC50 of 74 nM.
`NS(=O)(=O)c1csc(C(=NO)c2ccccc2)c1` [5-benzoyl-3-thiophene sulfonamide, oxime] was tested, and the IC50 was 53 nM.
Work on `NS(=O)(=O)c1csc(C(=O)c2ccccc2)c1` [5-benzoyl-3-thiophene sulfonamide] yielded an IC50 of 13 nM.
`NS(=O)(=O)c1csc(C(=O)c2ccccn2)c1` [[5-(3-sulfonamidothienyl)][2-pyridyl] ketone] showed an IC50 of 19 nM.
